Measurements published in US20150025077A1 (COYOTE PHARMACEUTICALS, INC., priority 2012, published 2015).
Values joined by “and” are separate entries in the source; they are usually repeats but may differ in a detail not shown here. Equal entries are not always repeated.

Tests used:
Neuro2A cells = Neuro2A cells that extended neurites, with GGTI-298 (Example 18); format: cell-based; settings: 0.1-1 μM; vehicle 0.0-0.20
Excerpt: After differentiation was induced, cells that extended neurites were counted.

RhoA = experiment: Active RhoA to total RhoA in Neuro2A cells (G-LISA, ELISA); format: cell-based, mouse; settings: 48 hrs, active RhoA to total RhoA as percentage of DMSO treatments
Protocol: Mouse neuroblastoma Neuro2A cells were cultured in DMEM supplemented with 10% FBS for 24 hrs. […] Cell lysates were quantified and subjected either to active RhoA assay using G-LISA RhoA activation Assay Biochem Kit (Cytoskeleton Inc), or to total RhoA assay using Total RhoA ELISA Kit (Cytoskeleton Inc). The results were calculated as ratio of active RhoA to total RhoA and averaged from 3 biological repeats of one experiment with background subtraction. The data was presented as percentage of DMSO treatments.

[1] = tested on: Murine neuro2A neuroblastoma cells; experiment: Neurite outgrowth of neuro2A cells with GGTI-298 (Example 30); format: cell-based, mouse
Protocol: Differentiation was induced and cells incubated with geranylgeranyl transferase I inhibitor, GGTI-298. After 24 h digital images were taken and neurite outgrowth was quantified. The comparisons of the neuroprotective effect of these three compounds are shown below.
The estimated mean log10 counts, from five replicate wells for each treatment group were calculated by PROC GLM in SAS assuming a pooled estimate of variation.
The estimated mean log 10 counts from five replicate wells for each treatment group were calculated by PROC GLM in SAS assuming a pooled estimate of variation.
Differences in mean log(counts) between treatments for each concentration were calculated using PROC GLM in SAS. The p-value given is for the comparison of the estimated difference to zero, the expected difference value for no treatment effect. The anti-log of the differences represent the estimated ratio of counts (relative effect on inhibition) and are tabulated below along with the lower and upper 95% confidence intervals.

[2] = Pharmacokinetics of CNS-102 in rats (IV, oral); format: in vivo; settings: rat
Protocol: Rats were administered a single dose of CNS-102 either intravenously (12 mg/kg) or orally (24 mg/kg), and blood samples were taken to measure the average plasma concentrations of CNS-102 over time.
The formulation for this study includes the following: […]
Formulations: (Dose: 24 mg/kg; Study Date: 4-16-2012)

HSP60 = HSP60 gene expression in rat brain tissue, qRT-PCR; format: in vivo; settings: 12 mg/kg oral
Protocol: […] Expression of selected HSPs was detected using qRT-PCR with expression of the GAPDH gene used as the control. To represent the effect of CNS-102 on HSP expression, mean fold change is calculated as CNS-102 treated/PBS treated for each HSP at each time point.

[3] = 10 nM, CNS-101/CNS-102 experiment
[4] = 100 nM, CNS-101/CNS-102 experiment
[5] = 100 nM, CNS-102/CNS-103 experiment
[6] = 1000 nM, CNS-101/CNS-102 experiment
[7] = 1000 nM, CNS-102/CNS-103 experiment
[8] = 10000 nM, CNS-101/CNS-102 experiment
[9] = 12 mg/kg IV, individual rats 1-3, 12 mg/kg
[10] = 12 mg/kg IV, individual rats 2, 3, 12 mg/kg
[11] = 24 mg/kg oral vs 12 mg/kg IV, average
[12] = 24 mg/kg oral, individual rats 4-6, 24 mg/kg

CC(=O)CC/C=C(\C)CC/C=C(\C)CC/C=C(\C)CCC=C(C)C [CNS-102]
Mean of cell numbers (cells that extended neurites) (Neuro2A cells): 0.45-0.65 Arbitrary units
% Relative RhoGTPase Activity (RhoA; CNS-102 10 nM): 103.6%
% Relative RhoGTPase Activity (RhoA; CNS-102 100 nM): 120.1%
Ratio % of neurite outgrowth, CNS-102 to CNS-101 ([1]; 10 nM): 113.6%
Protection % [1, 3]: 16.6%
Median Counts (cells with neurite outgrowth) ([1]; 10 nM, CNS-101/CNS-102 experiment, no inhibition 95.5, PBS 21.5): 33.8
ratio of counts relative to no inhibition [1, 3]: 0.354
Ratio % of neurite outgrowth, CNS-102 to CNS-101 ([1]; 100 nM): 112.1%
Ratio % of neurite outgrowth, CNS-102 to CNS-103 ([1]; 100 nM): 114.3%
Protection % [1, 4]: 29.6%
Median Counts (cells with neurite outgrowth) ([1]; 100 nM, CNS-101/CNS-102 experiment, no inhibition 95.5, PBS 21.5): 43.4
ratio of counts relative to no inhibition [1, 4]: 0.454
Protection % [1, 5]: 35.9%
Median Counts (cells with neurite outgrowth) ([1]; 100 nM, CNS-102/CNS-103 experiment, no inhibition 60.3, PBS 18.5): 33.5
ratio of counts relative to no inhibition [1, 5]: 0.556
Ratio % of neurite outgrowth, CNS-102 to CNS-101 ([1]; 1000 nM): 122.7%
Ratio % of neurite outgrowth, CNS-102 to CNS-103 ([1]; 1000 nM): 83.0%
Protection % [1, 6]: 39.9%
Median Counts (cells with neurite outgrowth) ([1]; 1000 nM, CNS-101/CNS-102 experiment, no inhibition 95.5, PBS 21.5): 51.0
ratio of counts relative to no inhibition [1, 6]: 0.534
Protection % [1, 7]: 12.7%
Median Counts (cells with neurite outgrowth) ([1]; 1000 nM, CNS-102/CNS-103 experiment, no inhibition 60.3, PBS 18.5): 23.8
ratio of counts relative to no inhibition [1, 7]: 0.395
Ratio % of neurite outgrowth, CNS-102 to CNS-101 ([1]; 10000 nM): 137.8%
Protection % [1, 8]: 22.6%
Median Counts (cells with neurite outgrowth) ([1]; 10000 nM, CNS-101/CNS-102 experiment, no inhibition 95.5, PBS 21.5): 38.2
ratio of counts relative to no inhibition [1, 8]: 0.400
maximum protection ([1]; CNS-101/CNS-102 experiment (FIG. 4A)): ~40%
maximum protection ([1]; CNS-102/CNS-103 experiment (FIG. 4B)): ~36%
Plasma Concentration of CNS-102 ([2]; 12 mg/kg IV, 5 min, average): 2402.5 ng/mL
Plasma Concentration of CNS-102 ([2]; 12 mg/kg IV, 5 min, individual rats 1-3, 12 mg/kg): 1268.2 ng/mL and 4087.5 ng/mL
Plasma Concentration of CNS-102 ([2]; 12 mg/kg IV, 10 min, average): 869.6 ng/mL
Plasma Concentration of CNS-102 ([2]; 12 mg/kg IV, 10 min, individual rats 1-3, 12 mg/kg): 227.0 ng/mL and 929.0 ng/mL
Plasma Concentration of CNS-102 ([2]; 12 mg/kg IV, 20 min, average): 518.9 ng/mL
Plasma Concentration of CNS-102 ([2]; 12 mg/kg IV, 20 min, individual rats 1-3, BQL set to zero, 12 mg/kg): 0.00 ng/mL and 652.7 ng/mL
Plasma Concentration of CNS-102 ([2]; 12 mg/kg IV, 30 min, average): 334.7 ng/mL
Plasma Concentration of CNS-102 ([2]; 12 mg/kg IV, 30 min, individual rats 1-3, BQL set to zero): 0.00 ng/mL
Plasma Concentration of CNS-102 ([2]; 12 mg/kg IV, 60 min, average): 325.8 ng/mL
Plasma Concentration of CNS-102 ([2]; 12 mg/kg IV, 60 min, individual rats 1-3, BQL set to zero): 0.00 ng/mL
Plasma Concentration of CNS-102 ([2]; 12 mg/kg IV, 120 min, average): 150.2 ng/mL
Plasma Concentration of CNS-102 ([2]; 12 mg/kg IV, 120 min, individual rats 1-3, BQL set to zero): 0.00 ng/mL
Plasma Concentration of CNS-102 ([2]; 12 mg/kg IV, 240 min, average): 209.0 ng/mL
Plasma Concentration of CNS-102 ([2]; 12 mg/kg IV, 240 min, individual rats 1-3, BQL set to zero): 0.00 ng/mL
Plasma Concentration of CNS-102 ([2]; 12 mg/kg IV, 480 min, average): 77.4 ng/mL
Plasma Concentration of CNS-102 ([2]; 12 mg/kg IV, 480 min, individual rats 1-3, BQL set to zero): 0.00 ng/mL
Plasma Concentration of CNS-102 ([2]; 12 mg/kg IV, 720 min, average): 0.0 ng/mL
Plasma Concentration of CNS-102 ([2]; 12 mg/kg IV, 720 min, individual rats 1-3, BQL set to zero): 0.00 ng/mL
AUC(0-inf) ([2]; 12 mg/kg IV, average): 208728 ng·min/mL
AUC(0-last) ([2]; 12 mg/kg IV, average): 115146 ng·min/mL
C0 ([2]; 12 mg/kg IV, average): 9144.0 ng/mL
Vss ([2]; 12 mg/kg IV, average): 9.796 L/kg
Vz ([2]; 12 mg/kg IV, average): 12.039 L/kg
t1/2 ([2]; 12 mg/kg IV, average): 2.45 h
AUC(0-last) [2, 9]: 19934.3 ng·min/mL and 95802.8 ng·min/mL and 229701.4 ng·min/mL
C0 [2, 9]: 7086.8 ng/mL and 17984.5 ng/mL and 2360.7 ng/mL
AUC(0-inf) [2, 10]: 115420.9 ng·min/mL and 302035.6 ng·min/mL
Vss [2, 10]: 6.0519 L/kg and 13.5396 L/kg
Vz [2, 10]: 11.6998 L/kg and 12.3785 L/kg
t1/2 [2, 10]: 1.3 h and 3.6 h
F (0-inf) [2, 11]: 49.1%
F (0-last) [2, 11]: 82.1%
Plasma Concentration of CNS-102 ([2]; 24 mg/kg oral, 10 min, average): 0.0 ng/mL
Plasma Concentration of CNS-102 ([2]; 24 mg/kg oral, 10 min, individual rats 4-6, BQL set to zero): 0 ng/mL
Plasma Concentration of CNS-102 ([2]; 24 mg/kg oral, 30 min, average): 193.3 ng/mL
Plasma Concentration of CNS-102 ([2]; 24 mg/kg oral, 30 min, individual rats 4-6, 24 mg/kg): 193.8 ng/mL and 224.3 ng/mL and 161.8 ng/mL
Plasma Concentration of CNS-102 ([2]; 24 mg/kg oral, 60 min, average): 576.8 ng/mL
Plasma Concentration of CNS-102 ([2]; 24 mg/kg oral, 60 min, individual rats 4-6, 24 mg/kg): 331.9 ng/mL and 500.2 ng/mL
Plasma Concentration of CNS-102 ([2]; 24 mg/kg oral, 120 min, average): 176.8 ng/mL
Plasma Concentration of CNS-102 ([2]; 24 mg/kg oral, 120 min, individual rats 4-6): 147.6 ng/mL
Plasma Concentration of CNS-102 ([2]; 24 mg/kg oral, 240 min, average): 298.0 ng/mL
Plasma Concentration of CNS-102 ([2]; 24 mg/kg oral, 240 min, individual rats 4-6, BQL set to zero): 0 ng/mL
Plasma Concentration of CNS-102 ([2]; 24 mg/kg oral, 480 min, average): 489.7 ng/mL
Plasma Concentration of CNS-102 ([2]; 24 mg/kg oral, 720 min, average): 47.2 ng/mL
Plasma Concentration of CNS-102 ([2]; 24 mg/kg oral, 720 min, individual rats 4-6, BQL set to zero): 0 ng/mL
Plasma Concentration of CNS-102 ([2]; 24 mg/kg oral, 1440 min, average): 0.0 ng/mL
Plasma Concentration of CNS-102 ([2]; 24 mg/kg oral, 1440 min, individual rats 4-6, BQL set to zero): 0 ng/mL
AUC(0-inf) ([2]; 24 mg/kg oral, average): 204878 ng·min/mL
AUC(0-last) ([2]; 24 mg/kg oral, average): 189114 ng·min/mL
Cmax ([2]; 24 mg/kg oral, average): 752.9 ng/mL
Tmax ([2]; 24 mg/kg oral, average): 340 min
t1/2 ([2]; 24 mg/kg oral, average): 1.72 h
AUC(0-inf) [2, 12]: 234242 ng·min/mL and 157666 ng·min/mL and 222724 ng·min/mL
AUC(0-last) [2, 12]: 214144 ng·min/mL and 130474 ng·min/mL and 222724 ng·min/mL
Cmax [2, 12]: 768 ng/mL and 898.2 ng/mL and 592.5 ng/mL
F (0-inf) [2, 12]: 56.1% and 37.8% and 53.4%
F (0-last) [2, 12]: 93.0% and 56.7% and 96.7%
Tmax [2, 12]: 480 min (2×) and 60 min
t1/2 [2, 12]: 1.64 h and 2.895 h and 0.613 h
HSP60 mean fold change (CNS-102 treated/PBS treated), mean ± SD (HSP60; 24 h): 1.26 ± 0.07
HSP60 mean fold change (CNS-102 treated/PBS treated), mean ± SD (HSP60; 48 h): 0.89 ± 0.08
HSP60 mean fold change (CNS-102 treated/PBS treated), mean ± SD (HSP60; 72 h): 1.72 ± 0.07
HSP60 mean fold change (CNS-102 treated/PBS treated), mean ± SD (HSP60; 96 h): 1.57 ± 0.16
